Data taken from patent publication US20170205396A1, “SYSTEMS AND METHODS FOR CULTURING NEPHRON PROGENITOR CELLS” (Salk Institute for Biological Studies, priority 2016, published 2017).

Experiments:
[1] = test system: nephron organoids; assay: Mouse nephron organoid generation and chemical treatment; type: cell-based
From the text: Given kidney's primary function in plasma filtration and metabolic homeostasis, drug-induced nephrotoxicity is common and constitutes a major consideration during the development of new therapeutic drugs. Currently, drug toxicity screening is largely performed using monolayer cultured immortalized kidney cells. Cells in monolayer culture, however, lack an intact 3D nephron structure and are thus limited for accurate prediction of a drug's effect on kidney function. Another layer of complexity during drug screening using immortalized cell lines relates to genetic abnormalities. […] A screen was done to determine conditions that allow efficient organoid generation from srNPCs. […] Committed srNPCs were designated as fate-specified NPCs or FS-NPCs. FS-NPCs could further differentiate autonomously and form nephron organoids marked by numerous tubular formations (FIG. 3B). Whole-mount staining of obtained nephron organoids identified numerous PODXL+/WT1+ glomeruli, LTL+ proximal tubules and CDH1+ distal tubules. The transition from srNPCs via FS-NPCs to nephron organoids was rapid (as short as 7 days), highly efficient and composed of all major nephron segments representing the glomeruli and proximal and distal tubules.
In vivo, NPCs first differentiate to pretubular aggregates (PTA) and renal vesicles (RV) before further maturation to form the segmented renal tubules. To determine which stage FS-NPCs likely correspond to, the expression of common PTA and RV markers was checked. […] Immunofluorescence studies confirmed protein expression of both PTA/RV markers (LHX1 and PAX8) and NPC markers (SIX2 and SALL1) in FS-NPCs.
The utility of srNPC-derived organoids for renal toxicity testing was determined. […]
CD2AP is an important interacting protein for NEPHRIN and PODOCIN and is necessary for proper glomerulus functions and mutations in CD2AP are associated with sporadic nephrotic syndrome and focal segmental glomerulosclerosis (FSGS). […] Consistent with the hypothesis, Cd2ap was expressed in wild type (#2) while barely detected in gene-disrupted (#1 and #3) organoids (FIG. 3E). […]

[2] = test system: Six2-GFP+ NPCs; assay: NPSR-based 3D aggregate culture of primary NPCs (srNPC derivation, long-term expansion, component withdrawal); type: cell-based, mouse; conditions: each of six components subtracted, period as short as 4 days
From the text: NPCs in mouse first appear around embryonic day 11.5 (E11.5) and mark the onset of nephrogenesis. In mice, NPCs exhaust shortly after birth, around postnatal day 3 (P3), after their last wave of differentiation into nephrons. Lineage tracing experiments have established SIX2 as a specific NPC marker. Available mouse strain with GFP cassette knocked in the Six2 locus (Six2^GCE) facilitates purification of Six2-GFP+ population from embryonic or neonatal mouse kidneys by fluorescence activated cell sorting (FACS). To screen for conditions conducive to in vitro expansion of NPCs Six2-GFP+ cells were isolated from E13.5 embryonic kidneys of Six2^GCE mice. Considering that in vivo NPCs are tightly packed together, it was hypothesized that the cell-cell contact might play a role in their survival and proliferation. Thus, to better preserve the native microenvironment, sorted Six2-GFP+ NPCs were transferred into U-bottom low-attachment 96-well plates to form 3D aggregates. In base medium supplemented with serum alone NPC aggregates could form.
The optimal condition supportive of NPC self-renewal in vitro was determined by screening growth factors and chemical inhibitors for known signaling pathways implicated in regulating NPC survival, self-renewal, and differentiation in vivo as well as other signaling pathways that were not previously reported. Cell viability, growth rate, and GFP signal were considered among other criteria. Through successive testing a novel culture condition was established containing a cocktail of BMP7, FGF2, Heparin, Y27632, LIF, and CHIR99021 that promotes long-term in vitro expansion of Six2-GFP+ NPCs with high purity (it was named NPC self-renewal medium, or NPSR medium) (FIG. 1A). Of note is that isolated Six2+ NPCs have been propagated in this culture for more than one year and more than 70 passages. The established NPC lines were designated as self-renewable NPCs (srNPCs) due to their unlimited proliferative potential. srNPCs grow fast under this culture condition. Starting with 3,000 cells, after 5 days, the aggregate can grow to around 1 mm in diameter containing around 100,000 cells (FIG. 1B and FIG. 1C). srNPC aggregates maintain stable growth rate after long term passages with 6 to 7 doublings per passage (FIG. 1D). […] Moreover, similar results were obtained when SIX2 and other NPC marker gene expressions were quantified by immunostaining: SIX2+ (˜96.2%), SALL1+ (˜99.1%), CITED1+ (˜96.1%) (FIG. 1E). […] To this end each of the six components were subtracted from NPSR medium and evaluated the effects on srNPCs.
It was determined whether NPSR culture could also support the derivation of srNPCs from other developmental stages harboring Six2+ populations. […]

Compound	effect of removal of the component from NPSR medium on srNPCs [2]	other results
C[C@H](NC(=O)Cc1cc(F)cc(F)c1)C(=O)N[C@H](C(=O)OC(C)(C)C)c1ccccc1 [DAPT]		effect on proximal tubule and glomerulus differentiation ([1]; 5 μM, day 2 to day? (FS-NPCs to nephron organoids)): both proximal tubules and glomerulus differentiation were inhibited
C[C@@H](N)[C@H]1CC[C@H](C(=O)Nc2ccncc2)CC1 [Y27632]	slower cell growth	
FGF2: fibroblast growth factor, NPSR medium component	slower cell growth	
Heparin	slower cell growth	
LIF: leukemia inhibitory factor protein, an interleukin 6 class cytokine	loss of GFP signal	
lipopolysaccharide [LPS]		glomerulus injury in nephron organoids (morphology, active Caspase 3) ([1]; 20 μg/ml, two-day exposure, day 7 organoids): specific damages in the glomerulus; apoptotic cells (active Caspase 3) in Cd2ap-deficient versus wild type organoids ([1]; low dosage 10 μg/ml, two days, tetO srNPC lines): accumulated more apoptotic cells than the wild type
